Reference: patent US8273712B2, “Promoting wound healing by administering a prostaglandin E and granulocyte-macrophage colony stimulating factor” (Medical Research Council, priority 2005, dated 2012)

What was measured:
[1] = system: Male Sprague Dawley rats, 2 cm circular dorsal wounds; assay: Rat model of wound healing; type: in vivo; settings: for Wound area relative to control (significance, in words): day 3 post surgery; for Wound colour observations relative to control: days 3-5; for Consistent brown wound colour scores: days 9 and 10, red indicates a less healed wound than brown
Experimental: Male Sprague Dawley rats weighing between 250-300 grams were used as a wound healing model to assess the effects of PGE and GMCSF. 6 rats per treatment group were analysed to provide adequate data for statistical comparisons between control and treated groups. A total of 24 animals were used (4 groups of 6 rats). The four groups were control, 16,16-dimethyl PGE, GMCSF, and 16,16-dimethyl PGE+GMCSF groups. […] Two wounds were created on each animal, resulting in an “n” of 12 wounds per group.
Following acclimatisation (5-6 days), the rats were given a subcutaneous injection of Glycopyrolate (0.01 mg/kg at 0.02 mg/mL), dose volume 0.5 mL/kg, and anesthetised with an intraperitoneal injection of a Ketamine (40 mg/kg)/Xylazine (5 mg/kg) cocktail at 45 mg/mL (ket) and 5 mg/mL (xy), dose volume 0.88 mL/kg. Adequate depth of anesthesia was assessed by a toe pinch prior to beginning surgery, such that if any movement was noted, the animals were given more anaesthesia. […] Once anesthesia was accomplished, a 6×8 cm area was shaved in the dorsal area. Following shaving, a depilatory agent (Nair) was applied to the shaved area, and allowed to remain on the skin for approximately 5 minutes. After this time, the Nair was gently scraped from the skin with a blunt spatula and any residue was removed by rinsing the skin with deionised, distilled water and wiping with gauze sponges. The shaved area was then surgically prepared with chlorhexidine and alcohol scrub.
The rat was then placed on its abdomen and positioned in such a way that the limbs were relaxed and the spine was straight. […] The inside margins of the T were traced with a Sharpie pen, such that as upside-down “L” appeared on the right side of the rat and an upside-down and backward “L” appeared on the left side of the animal. These designated the cranial border of each wound, approximately 3 cm caudal to the scapular angles, and the medial border of each wound, approximately 0.25 cm from the midline.
To make the wound template, the rim of a cap from a Corning 15 ml conical tube was placed on the area and traced using a sterile surgical marker creating a 2 cm circle within one of the upside-down L's described above. An initial incision was made with a #10 scalpel blade at the medial edge of each circle. The incision was made through the panniculus carnosus into the areolar layer of the subcutaneous loose connective tissue. The excision was continued around the entire perimeter of the circle using forceps and Metzenbaum curved scissors while taking care to avoid damaging the deep fescial layers. The skin was removed to leave a circular wound. Where necessary, hemostasis was achieved by even compression with a sterile gauze pad.
The test agent or vehicle control, was administered at three different sites under the wound bed. Group assignments and dose levels for each treatment were as detailed in Table 8. Dose levels were based on body weight.
The wounds were not covered with any type of dressing. Approximately 30 minutes after recovery (determined by sternal recumbency and normal movement) the animals were given a subcutaneous injection of Buprenorphine (0.1 mg/kg) and transferred to individual cages with elevated stainless steel floors. Additional Buprenorphine was given every 6-8 hours as needed, then for the following 72 hours, 0.05 mg/kg was administered every 6-12 hours as needed.
Animals were anesthetised with isoflurane on days 3, 7, and 10 following surgery and the wounds were measured by caliper for width and length. The width and length measurements were then multiplied to calculate wound area and the mean wound area and standard error of the mean for each treatment determined. To test for any significant difference in wound healing relative to control treatment, a two-way analysis of variance (ANOVA) test was performed on the mean wound areas. In addition to wound area, wound healing was evaluated daily by observing wound colour. […]

[2] = target: T1, 15-hydroxy prostaglandin dehydrogenase (Homo sapiens, UniProt P15428); settings: cited from earlier work
T1 sequence (P15428 1-266): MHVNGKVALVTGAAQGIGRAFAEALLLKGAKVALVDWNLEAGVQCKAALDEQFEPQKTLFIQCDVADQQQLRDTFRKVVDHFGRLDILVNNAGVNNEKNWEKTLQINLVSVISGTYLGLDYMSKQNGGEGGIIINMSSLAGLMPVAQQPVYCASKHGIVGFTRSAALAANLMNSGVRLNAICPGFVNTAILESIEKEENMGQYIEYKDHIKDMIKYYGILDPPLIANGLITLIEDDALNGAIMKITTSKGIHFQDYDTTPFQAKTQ

PGE receptors = settings: cited from earlier work
ML1 cells = assay: ELISA for measuring cytokine release; type: cell-based, human; settings: monocyte
Experimental: Medium was removed from cells and analysed by ELISA. A monoclonal capture antibody was coated onto 96 well plates and culture medium was added each well. A standard curve was created with recombinant protein. After incubation and washing, a biotin-labelled monoclonal antibody was added. Following further incubation and washing, peroxidase-labelled streptavidin was added. After washing, a tetramethyl benzidine substrate was added and colour developed in proportion to the concentration of the cytokine in the original sample/standard. Colour was read using a plate photometer (Labsystems, Multiskan).
Paired antibodies and recombinant standards for CD14, CXCL8 (IL-8), and CCL2 (MCP-1) were obtained from R&D Systems Ltd, Abingdon UK and antibodies for IL-10 were obtained from Pharmingen (BD Bioscience, Erembodegem, Belgium), as shown below in Table 1.

[3] = Day 3 post surgery, PGE analog 400 μg/kg and/or GMCSF 25 μg/kg per site under the wound bed
[4] = Day 7 post surgery, PGE analog 400 μg/kg and/or GMCSF 25 μg/kg per site
[5] = Day 10 post surgery, PGE analog 400 μg/kg and/or GMCSF 25 μg/kg per site

Molecule | Difference in wound area relative to control ([1]; Day 3) | Mean wound area [1, 3] [mm^2] | Difference in wound area relative to control ([1]; Day 7) | Mean wound area [1, 4] [mm^2] | Difference in wound area relative to control ([1]; Day 10) | Mean wound area [1, 5] [mm^2] | Wound area relative to control (significance, in words) [1] | Wound colour observations relative to control [1] | Consistent brown wound colour scores [1] | Resistance to the main catabolic enzyme 15-hydroxy prostaglandin dehydrogenase [2] | Activation of PGE receptors (PGE receptors) | IL-8 release induced by PGE and GMCSF (ML1 cells)
GMCSF | −15.50 | 424.2 | −18.63 | 248.0 | 8.761 | 153.0 | No significant difference | more consistent brown scores relative to the control treatment | 3 |  |  | 
16,16-dimethyl PGE [PGE analog] | −52.21 | 387.5 | −11.29 | 255.4 | −9.185 | 135.1 | No significant difference | more consistent brown scores relative to the control treatment | 2 | resistant | activate all known PGE receptors | 
COc1ccc(C2CNC(=O)C2)cc1OC1CCCC1 (stereo not drawn) [rolipram] |  |  |  |  |  |  |  |  |  |  |  | enhance IL-8 release
